# Data taken from patent publication US5721207A, “Method for treatment of pain” (Innapharma, Inc., priority 1995, dated 1998).
# Columns and labels:
# rat [1] = test: Rat hot plate analgesiometric test, dose response of single intrathecal elcatonin (Example 8); assay type: in vivo
# Protocol: The doses tested were 0.2, 0.8, 1.6, 2.4, and 3.6 IU/kg. The desired dose was injected in a volume of 37.5 μL/kg, followed by a catheter wash-out with 10 μL saline, via the intrathecal route.
# A total of 113 adult male rats, of weights of 350 g to 400 g, were used. Intrathecal catheters were surgically implanted as described in Example 4.
# Data were analyzed for statistical significance, and a point estimate (mean and standard deviation) are used to analyze analgesic activity for each dose of the drug for a selected time period. Nonparametric statistics were calculated to address the level of significance of any difference between control and test group.
# rat [2] = test: Rat hot plate test, five consecutive daily intrathecal doses of elcatonin (Example 11); assay type: in vivo; details: 4.4 IU/kg intrathecal, five consecutive daily doses (FIG. 7)
# Protocol: Intrathecal catheters were implanted in rats as described hereinabove, and a 7-10 day period thereafter allowed for full recovery from the surgical procedures.
# Eighteen rats were assigned to three treatment groups of six rats per group. The study is conducted in two treatment phases at one week intervals. Treatment Group I rats receive no treatment. Group II rats receive five consecutive daily intrathecal doses of sterile physiological saline (vehicle control).
# For each treatment, hot plate latencies are determined as described in Example 5 herein above at 0 minutes (predose, baseline), 1 hour, 3 hours, and 24 hours following injection on the first, third, and fifth study days.
substance,measurement,setting,value
"[Des-Cys^1,ASU^7 ]-Calcitonin, Eel [Elcatonin]",antinociceptive response (statistics),rat [1]; 0.2 IU/kg intrathecal (lowest dose tested),did not produce a statistically significant response
same,Hot Plate Latency (Mean ± SEM),"rat [1]; 0.2 IU/kg intrathecal single, 0 hr (baseline)",10.6 ± 0.8 s
same,Hot Plate Latency (Mean ± SEM),"rat [1]; 0.2 IU/kg intrathecal single, 0.25 hr after administration",13.0 ± 1.1 s
same,Hot Plate Latency (Mean ± SEM),"rat [1]; 0.2 IU/kg intrathecal single, 0.5 hr after administration",12.9 ± 0.7 s
same,Hot Plate Latency (Mean ± SEM),"rat [1]; 0.2 IU/kg intrathecal single, 1 hr after administration",12.7 ± 0.9 s
same,Hot Plate Latency (Mean ± SEM),"rat [1]; 0.2 IU/kg intrathecal single, 3 hr after administration",13.1 ± 0.7 s
same,Hot Plate Latency (Mean ± SEM),"rat [1]; 0.2 IU/kg intrathecal single, 6 hr after administration",12.1 ± 0.5 s
same,Hot Plate Latency (Mean ± SEM),"rat [1]; 0.2 IU/kg intrathecal single, 24 hr after administration",10.8 ± 0.7 s
same,Hot Plate Latency (Mean ± SEM),"rat [1]; 0.8 IU/kg intrathecal single, 0 hr (baseline)",9.8 ± 0.8 s
same,Hot Plate Latency (Mean ± SEM),"rat [1]; 0.8 IU/kg intrathecal single, 0.25 hr after administration",15.1 ± 1.5 s
same,Hot Plate Latency (Mean ± SEM),"rat [1]; 0.8 IU/kg intrathecal single, 0.5 hr after administration",15.0 ± 1.5 s
same,Hot Plate Latency (Mean ± SEM),"rat [1]; 0.8 IU/kg intrathecal single, 1 hr after administration",15.2 ± 1.3 s
same,Hot Plate Latency (Mean ± SEM),"rat [1]; 0.8 IU/kg intrathecal single, 3 hr after administration",20.0 ± 2.8 s
same,Hot Plate Latency (Mean ± SEM),"rat [1]; 0.8 IU/kg intrathecal single, 6 hr after administration",12.3 ± 1.0 s
same,Hot Plate Latency (Mean ± SEM),"rat [1]; 0.8 IU/kg intrathecal single, 24 hr after administration",11.7 ± 1.0 s
same,antinociceptive response (statistics),rat [1]; 0.8 and 1.6 IU/kg intrathecal,significant antinociception
same,Hot Plate Latency (Mean ± SEM),"rat [1]; 1.6 IU/kg intrathecal single, 0 hr (baseline)",9.2 ± 0.5 s
same,Hot Plate Latency (Mean ± SEM),"rat [1]; 1.6 IU/kg intrathecal single, 0.25 hr after administration",16.4 ± 1.2 s
same,Hot Plate Latency (Mean ± SEM),"rat [1]; 1.6 IU/kg intrathecal single, 0.5 hr after administration",16.0 ± 1.0 s
same,Hot Plate Latency (Mean ± SEM),"rat [1]; 1.6 IU/kg intrathecal single, 1 hr after administration",16.4 ± 1.1 s
same,Hot Plate Latency (Mean ± SEM),"rat [1]; 1.6 IU/kg intrathecal single, 3 hr after administration",15.1 ± 0.9 s
same,Hot Plate Latency (Mean ± SEM),"rat [1]; 1.6 IU/kg intrathecal single, 6 hr after administration",13.6 ± 0.8 s
same,Hot Plate Latency (Mean ± SEM),"rat [1]; 1.6 IU/kg intrathecal single, 24 hr after administration",10.9 ± 0.4 s
same,Hot Plate Latency (Mean ± SEM),"rat [1]; 2.4 IU/kg intrathecal single, 0 hr (baseline)",9.0 ± 0.7 s
same,Hot Plate Latency (Mean ± SEM),"rat [1]; 2.4 IU/kg intrathecal single, 0.25 hr after administration",20.0 ± 1.5 s
same,Hot Plate Latency (Mean ± SEM),"rat [1]; 2.4 IU/kg intrathecal single, 0.5 hr after administration",20.1 ± 1.9 s
same,Hot Plate Latency (Mean ± SEM),"rat [1]; 2.4 IU/kg intrathecal single, 1 hr after administration",19.5 ± 1.8 s
same,Hot Plate Latency (Mean ± SEM),"rat [1]; 2.4 IU/kg intrathecal single, 3 hr after administration",21.8 ± 2.1 s
same,Hot Plate Latency (Mean ± SEM),"rat [1]; 2.4 IU/kg intrathecal single, 6 hr after administration",12.6 ± 1.2 s
same,Hot Plate Latency (Mean ± SEM),"rat [1]; 2.4 IU/kg intrathecal single, 24 hr after administration",10.3 ± 1.2 s
same,antinociceptive response (statistics),rat [1]; 2.4 and 3.6 IU/kg intrathecal,strong antinociception
same,Hot Plate Latency (Mean ± SEM),"rat [1]; 3.6 IU/kg intrathecal single, 0 hr (baseline)",10.4 ± 0.9 s
same,Hot Plate Latency (Mean ± SEM),"rat [1]; 3.6 IU/kg intrathecal single, 0.25 hr after administration",19.4 ± 1.6 s
same,Hot Plate Latency (Mean ± SEM),"rat [1]; 3.6 IU/kg intrathecal single, 0.5 hr after administration",21.4 ± 1.8 s
same,Hot Plate Latency (Mean ± SEM),"rat [1]; 3.6 IU/kg intrathecal single, 1 hr after administration",23.5 ± 2.5 s
same,Hot Plate Latency (Mean ± SEM),"rat [1]; 3.6 IU/kg intrathecal single, 3 hr after administration",19.5 ± 1.0 s
same,Hot Plate Latency (Mean ± SEM),"rat [1]; 3.6 IU/kg intrathecal single, 6 hr after administration",15.7 ± 1.3 s
same,Hot Plate Latency (Mean ± SEM),"rat [1]; 3.6 IU/kg intrathecal single, 24 hr after administration",10.2 ± 1.0 s
same,dose relation of hot plate latencies,"rat [1]; intrathecal, 0.2-3.6 IU/kg",increased hot plate latencies in a dose-related fashion
same,onset of antinociception after injection,"rat [1]; intrathecal, 0.2-3.6 IU/kg",≤ 15 min
same,duration of antinociception post-injection,"rat [1]; intrathecal, all doses used",at least 6 hours
same,time of peak antinociception,"rat [1]; intrathecal, all doses used",30 to 60 min
same,hot plate latency by 24 hr post-injection,"rat [1]; intrathecal, most tests",returned to baseline
same,antinociception at 6 hrs after injection,"rat [1]; intrathecal, three higher doses",Significant antinociception was also apparent
same,"antinociceptive results, intrathecal compared with intravenous",rat [1]; rat hot plate,unexpectedly improved antinociceptive results as compared with intravenous injection
same,hot plate latency,rat [2],hot plate latency is increased
same,hot plate latency at 24 hr after each successive injection,rat [2],"greater hot plate latency, and a cumulative analgesic effect over time"
